Assay results as given in patent US20240335544A1, “M6PR CELL SURFACE RECEPTOR BINDING COMPOUNDS AND CONJUGATES” (LYCIA THERAPEUTICS, INC., priority 2021, published 2024).
Entries after “also recorded” stand apart in the source; their conditions may differ. Read-outs that look alike come from different tables or passages of the source.

Columns and labels:
Jurkat cells [1] = assay: Conjugate-mediated uptake of IgG2a-Alexa488 into Jurkat cells; type: cell-based; conditions: for uptake into Jurkat cells (cell fluorescence vs conjugate concentration): DAR 9-11 per conjugate
Description: (§1) The anti-IgG2a conjugates were bound to IgG2a-Alexa488, as follows: equal molar ratios of anti-IgG2a and IgG2a-Alexa488 were added in tissue culture media for 30 minutes at room temperature. The resulting anti-IgG2a:IgG2a antibody-Alexa488 compositions were added to Jurkat cells (100 k cells/50 ul per well, n=2), and Alexa488 fluorescence levels were measured (via Alexa488 measurement) at 1 hour and 24 hours by flow cytometry. As the fluorescently labelled target (IgG2a antibody) accumulates in cells, the fluorescence presents a way to measure total intracellular uptake by cells over time.

CI-M6PR [2] = target: T1, CI-M6PR (Homo sapiens, UniProt P11717); assay: Human CI-M6PR binding assay (ELISA); set-up: purchased R&D 6418-GR-050
Description: Nunc black solid bottom MaxiSorp plates were allowed to incubate overnight at 4° C. coated with 1 μg/mL of recombinant human CI-M6PR protein (R&D, 6418-GR-050) in 50 μL PBS. The next day, coating was decanted and plates were washed 3× with PBS. Wells were blocked with 350 μL of 3% BSA-PBS for 1 hour at room temperature. […] 50 μL of diluted conjugates were added to the plate and allowed to incubate at room temperature for 2 hours. After incubation, solutions in plate were decanted and washed with 350 μL of 0.05% PBS-Tween20 three times, drying the plate each wash on a clean paper towel. 50 μL of peroxidase AffiniPure Mouse Anti-Human IgG (Jackson Immuno, 209-035-088) diluted in 3% BSA-PBS to […] was added to the plate and allowed to incubate for 1 hour at room temperature in the dark. After incubation, solutions in plate were decanted and washed with 350 μL of 0.05% PBS-Tween20 3 times, drying the plate each wash on a clean paper towel. […] 50 μL of QuantaBlu solution was added to wells and allowed to incubate for 5-10 minutes at room temperature. After incubation, plates were read on a Perkin Elmer EnVision using photometric 340 and Umbelliferone 460 filter sets for excitation and emission, respectively. Data analysis and non-linear curve-fitting was performed using GraphPad Prism.
Target sequence in this assay (P11717 41-1365 limits assumed): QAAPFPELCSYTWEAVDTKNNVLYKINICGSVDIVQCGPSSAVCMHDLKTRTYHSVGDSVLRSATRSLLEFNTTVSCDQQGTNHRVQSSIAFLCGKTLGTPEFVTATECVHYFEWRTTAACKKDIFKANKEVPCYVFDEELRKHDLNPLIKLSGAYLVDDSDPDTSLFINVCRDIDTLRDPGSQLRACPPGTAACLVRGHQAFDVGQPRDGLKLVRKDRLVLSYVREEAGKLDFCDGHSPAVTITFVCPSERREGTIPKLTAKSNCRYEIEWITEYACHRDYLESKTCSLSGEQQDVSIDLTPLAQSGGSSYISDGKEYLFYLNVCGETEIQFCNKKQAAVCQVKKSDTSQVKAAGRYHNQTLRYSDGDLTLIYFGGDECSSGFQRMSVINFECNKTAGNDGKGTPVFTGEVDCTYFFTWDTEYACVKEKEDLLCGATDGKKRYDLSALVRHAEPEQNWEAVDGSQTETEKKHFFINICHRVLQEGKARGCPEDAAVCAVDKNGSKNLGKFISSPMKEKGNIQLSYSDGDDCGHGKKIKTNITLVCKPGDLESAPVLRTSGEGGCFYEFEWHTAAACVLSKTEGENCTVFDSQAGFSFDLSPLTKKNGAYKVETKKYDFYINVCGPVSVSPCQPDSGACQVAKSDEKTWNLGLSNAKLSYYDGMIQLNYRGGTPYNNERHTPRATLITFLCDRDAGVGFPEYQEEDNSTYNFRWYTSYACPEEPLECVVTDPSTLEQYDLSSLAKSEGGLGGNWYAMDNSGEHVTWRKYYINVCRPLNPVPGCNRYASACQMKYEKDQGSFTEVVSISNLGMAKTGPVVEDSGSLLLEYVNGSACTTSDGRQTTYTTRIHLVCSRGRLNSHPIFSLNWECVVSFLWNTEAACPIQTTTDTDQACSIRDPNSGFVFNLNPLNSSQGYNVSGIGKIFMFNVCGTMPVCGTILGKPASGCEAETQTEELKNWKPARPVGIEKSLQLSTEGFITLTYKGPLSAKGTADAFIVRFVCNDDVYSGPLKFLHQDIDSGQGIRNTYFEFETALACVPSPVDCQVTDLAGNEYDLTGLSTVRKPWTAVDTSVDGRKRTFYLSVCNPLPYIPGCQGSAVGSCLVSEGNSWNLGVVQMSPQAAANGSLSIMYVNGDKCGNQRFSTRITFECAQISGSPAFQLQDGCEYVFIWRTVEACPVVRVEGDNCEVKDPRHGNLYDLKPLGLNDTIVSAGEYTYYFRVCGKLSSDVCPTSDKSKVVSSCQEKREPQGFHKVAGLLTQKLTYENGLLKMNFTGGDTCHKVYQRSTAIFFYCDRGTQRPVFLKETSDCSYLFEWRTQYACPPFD

Hep G2 cells = assay: Conjugate-mediated uptake of IgG2a into Hep G2 cells; type: cell-based, human; conditions: one hour incubation, FIG. 13; 816 DAR6, 817 DAR4, 520 (I-7) DAR4
Description: as §1
The uptake of antibody conjugates of exemplary M6PR or ASGPR binding compounds was assessed in Hep G2 cells, using a method similar to that described in Example above. […] Compounds 816 and 817 were prepared according to methods described in International Application No. PCT/US2021/012846, filed Jan. 8, 2021.

[3] = tested on: wild type (WT) K562 cells; assay: CI-M6PR mediated uptake of Alexa488-IgE in wild type K562 cells; type: cell-based; conditions: omalizumab conjugates, average loading DAR9, FIG. 14
Description: The uptake of exemplary omalizumab (anti-IgE) antibody conjugates of compound 520 (I-7) (average loading DAR9) versus exemplary compound 537 (I-66) (average loading DAR9) was assessed in wild type (WT) K562 cells and CI-M6PR knockout (KO) cells using a similar method of that described above.

Jurkat cells [4] = assay: Uptake of IgE-Alexa488 target by omalizumab conjugates in Jurkat cells; type: cell-based
Description: The omalizumab conjugates of Example 142 were bound to IgE-Alexa488 (prepared according to Example 144), as follows: equal molar ratios of omalizumab (anti-IgE) conjugate and IgE-Alexa488 were added in tissue culture media for 30 minutes at room temperature. The resulting anti-IgE conjugate:IgE antibody-Alexa488 compositions were added to Jurkat cells (100 k cells/50 ul per well, n=2), and Alexa488 fluorescence levels in the cells were measured at 1 hour by flow cytometry. As the fluorescently labelled target (IgE antibody) accumulates in cells, the fluorescence presents a way to measure total intracellular uptake by cells over time.

CI-M6PR [5] = target: T1, CI-M6PR; assay: CI-M6PR SPR binding assay; conditions: omalizumab conjugates at DAR of about 4
Description: The CI-M6PR binding affinities of omalizumab (anti-IgE) conjugates of Table 19 were also assessed via SPR binding assay. […] At equivalent DAR (m) values, the koff rate of the omalizumab (anti-IgE) conjugates was 552>529>570.
Target sequence in this assay (P11717 41-2491): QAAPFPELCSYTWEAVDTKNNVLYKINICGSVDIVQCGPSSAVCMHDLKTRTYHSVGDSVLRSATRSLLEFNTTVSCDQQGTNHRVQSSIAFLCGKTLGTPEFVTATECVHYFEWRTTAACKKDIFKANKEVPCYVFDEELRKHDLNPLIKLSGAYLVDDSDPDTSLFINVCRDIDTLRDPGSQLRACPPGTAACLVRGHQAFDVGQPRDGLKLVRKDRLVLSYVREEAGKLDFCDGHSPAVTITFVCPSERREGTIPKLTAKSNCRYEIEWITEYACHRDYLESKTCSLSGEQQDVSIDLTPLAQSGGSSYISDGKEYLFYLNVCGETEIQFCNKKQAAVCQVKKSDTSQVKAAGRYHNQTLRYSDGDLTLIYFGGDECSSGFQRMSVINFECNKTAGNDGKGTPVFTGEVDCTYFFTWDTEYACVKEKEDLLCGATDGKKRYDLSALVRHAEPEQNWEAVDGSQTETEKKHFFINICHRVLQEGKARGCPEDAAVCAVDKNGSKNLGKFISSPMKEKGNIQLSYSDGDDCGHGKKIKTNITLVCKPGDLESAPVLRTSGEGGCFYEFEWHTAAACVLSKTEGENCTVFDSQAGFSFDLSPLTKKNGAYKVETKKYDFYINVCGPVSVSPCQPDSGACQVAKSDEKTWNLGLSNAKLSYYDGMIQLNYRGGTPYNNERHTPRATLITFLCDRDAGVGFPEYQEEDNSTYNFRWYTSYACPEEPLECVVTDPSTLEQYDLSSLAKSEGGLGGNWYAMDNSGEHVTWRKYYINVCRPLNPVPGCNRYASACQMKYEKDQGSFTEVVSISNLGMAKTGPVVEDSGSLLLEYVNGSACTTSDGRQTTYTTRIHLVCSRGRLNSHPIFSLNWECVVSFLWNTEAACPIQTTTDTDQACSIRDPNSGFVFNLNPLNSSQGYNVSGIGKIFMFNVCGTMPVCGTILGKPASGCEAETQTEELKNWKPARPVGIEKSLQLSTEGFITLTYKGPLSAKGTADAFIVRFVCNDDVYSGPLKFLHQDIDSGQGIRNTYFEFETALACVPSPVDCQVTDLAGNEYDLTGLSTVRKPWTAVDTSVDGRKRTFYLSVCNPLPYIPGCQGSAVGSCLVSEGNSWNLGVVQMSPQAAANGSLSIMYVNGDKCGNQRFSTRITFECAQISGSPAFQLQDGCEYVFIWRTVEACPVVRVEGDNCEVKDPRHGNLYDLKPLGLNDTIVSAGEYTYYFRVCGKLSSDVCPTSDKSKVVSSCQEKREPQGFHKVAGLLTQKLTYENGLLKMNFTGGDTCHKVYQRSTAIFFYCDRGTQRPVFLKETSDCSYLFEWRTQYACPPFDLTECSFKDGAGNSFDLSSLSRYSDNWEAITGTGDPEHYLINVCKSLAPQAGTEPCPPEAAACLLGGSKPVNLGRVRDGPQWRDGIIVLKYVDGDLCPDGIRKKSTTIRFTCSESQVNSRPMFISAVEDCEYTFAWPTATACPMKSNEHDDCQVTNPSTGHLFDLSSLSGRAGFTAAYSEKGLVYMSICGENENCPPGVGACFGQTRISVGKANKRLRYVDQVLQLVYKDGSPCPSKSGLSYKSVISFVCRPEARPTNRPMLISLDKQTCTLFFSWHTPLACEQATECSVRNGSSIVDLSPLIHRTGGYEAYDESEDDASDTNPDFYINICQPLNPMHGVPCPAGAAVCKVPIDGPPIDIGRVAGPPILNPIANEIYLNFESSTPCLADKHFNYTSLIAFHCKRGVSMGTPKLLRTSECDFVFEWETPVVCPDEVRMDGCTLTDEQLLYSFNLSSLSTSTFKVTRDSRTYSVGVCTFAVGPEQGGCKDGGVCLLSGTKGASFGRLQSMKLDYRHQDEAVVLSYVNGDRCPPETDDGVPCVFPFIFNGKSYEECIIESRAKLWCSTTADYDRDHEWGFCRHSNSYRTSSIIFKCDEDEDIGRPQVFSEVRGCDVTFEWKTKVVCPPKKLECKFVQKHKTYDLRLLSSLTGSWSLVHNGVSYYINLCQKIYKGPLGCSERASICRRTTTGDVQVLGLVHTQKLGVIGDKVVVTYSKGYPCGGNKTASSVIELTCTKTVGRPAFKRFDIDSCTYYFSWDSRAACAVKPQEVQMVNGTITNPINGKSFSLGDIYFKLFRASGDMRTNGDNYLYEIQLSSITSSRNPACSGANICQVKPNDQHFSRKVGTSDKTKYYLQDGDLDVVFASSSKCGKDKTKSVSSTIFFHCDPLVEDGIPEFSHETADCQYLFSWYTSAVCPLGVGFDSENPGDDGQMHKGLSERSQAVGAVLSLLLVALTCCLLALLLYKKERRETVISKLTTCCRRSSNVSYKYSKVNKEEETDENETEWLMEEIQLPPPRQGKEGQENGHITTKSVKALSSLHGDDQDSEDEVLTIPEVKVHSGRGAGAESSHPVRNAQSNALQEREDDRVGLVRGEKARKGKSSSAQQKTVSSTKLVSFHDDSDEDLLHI

[6] = Serum pharmacokinetic analysis of rIgG1 (anti-IgG2a) antibody conjugates; type: in vivo, mice; conditions: intravenous 10 μg/mouse, serum 0.5-24 h, compared to Compound I-7 conjugate
Description: A pharmacokinetic analysis of the rIgG1 (anti-IgG2a) antibody conjugates described in the previous example was performed in mice. In particular, […] mice were intravenously administered each rIgG1 antibody conjugate at 10 μg/mouse (5 mice per group). Blood was collected at 0.5, 1, 2, 6, and 24 hours and serum rIgG1 was analyzed using an ELISA kit (Abcam) according to the manufacturer's instructions. Samples were run across 3 different plates with unconjugated rIgG1 controls (UNLB-anti-IgG2a rIgG1) included on all 3 plates. FIGS. 8A-8C show the serum levels of anti-IgG2a conjugated to Compound I-7 (dar8) and (dar4) (FIG. 8A), anti-IgG2a conjugated to Compound I-10 and anti-IgG2a conjugated to Compound I-11 (FIG. 8B), and anti-IgG2a conjugated to Compound I-9 and anti-IgG2a conjugated to Compound I-12 (FIG. 8C) over time.

[7] = target: T2, M6PR (Domains I-9, R&D Systems) (Homo sapiens, UniProt P11717); assay: General M6PR binding assay (fluorescence polarization); conditions: Table 16F, unconjugated compounds, 100 nM M6PR, 1 nM probe, 2 hr incubation
T2 construct: with 100 nM M6PR (Domains I-9, R&D Systems) and 1 nM probe; purchased R&D Systems
Description: M6PR binding was measured in black 96-well plates using a fluorescence polarization assay. A fluorescent probe consisting of a reference M6Pn ligand linked to Cy5 was synthesized. Test compounds were resuspended in DMSO and 3-fold serial dilutions were made at 100× final concentrations. Binding reactions were conducted in 100 μl final volume in 20 mM HEPES (pH 7.5) 100 mM NaCl 0.015% Tween-20 1% DMSO with 100 nM M6PR (Domains I-9, R&D Systems) and 1 nM probe. Fluorescence polarization was measured using Xex=620 nm, λem=688 nm on an Envision plate reader (Perkin Elmer) after 2 hr incubation time. Dose responses were conducted in duplicate and normalized to the response with DMSO (high) and 1 μM reference compound (low) on each plate. IC50 values were determined by fitting to 4-parameter curves in GraphPad Prism.

[8] = antibody conjugate, average loading DAR 9, read-out: EC50 (nM) in M6PR binding assay
[9] = Table 16E, conjugate, m average DAR 9.5, read-out: EC50 in M6PR binding assay for conjugates of monovalent compounds of varying linker length and loading
[10] = antibody conjugate, average loading DAR 9.5, read-out: EC50 (nM) in M6PR binding assay

T2 sequence (P11717 41-1365 limits assumed): as the sequence (P11717 41-1365 limits assumed) above

With `O=C(CCCCCc1cn(CCOCCOCCOCCOCCC(=O)Oc2c(F)c(F)c(F)c(F)c2F)nn1)Nc1ccc(O[C@H]2O[C@H](CCP(=O)(O)O)[C@@H](O)[C@H](O)[C@@H]2O)cc1` [513 (I-39)] the “uptake into Jurkat cells (cell fluorescence vs conjugate concentration)” value (Jurkat cells [1]; one hour incubation, FIG. 12) was “strong cell uptake” and the EC50 (CI-M6PR [2]; [8]) was 0.19 nM.

For `O=C(CCOCCOCCOCCOCCn1cc(CCCCNC(=S)Nc2ccc(O[C@H]3O[C@H](CCP(=O)(O)O)[C@@H](O)[C@H](O)[C@@H]3O)cc2)nn1)Oc1c(F)c(F)c(F)c(F)c1F` [520 (I-7)], the “uptake into HepG2 cells” value (Hep G2 cells) was “comparable HepG2 cellular uptake”, the “cell uptake of Alexa488-IgE target, WT K562 versus CI-M6PR KO cells” value [3] was “CI-M6PR dependent” and the EC50 (CI-M6PR [2]; Table 16B, antibody conjugate, average loading DAR 4, read-out: EC50 in M6PR binding assay) was 0.41 nM. It also gave an EC50 (CI-M6PR [2]; Table 16C, cetuximab (anti-EGFR) conjugate, average loading DAR 8, read-out: EC50 in M6PR binding assay) of 0.41 nM, an EC50 (CI-M6PR [2]; Table 16D, conjugate, m average loading DAR 2, read-out: EC50 in M6PR binding assay for conjugates of compounds of varying multivalency) of 3.71 nM and an EC50 (CI-M6PR [2]; Table 16D, conjugate, m average loading DAR 4, read-out: EC50 in M6PR binding assay for conjugates of compounds of varying multivalency) of 0.3 nM. The EC50 (CI-M6PR [2]; Table 16D, conjugate, m average loading DAR 9, read-out: EC50 in M6PR binding assay for conjugates of compounds of varying multivalency) was 0.23 nM, the EC50 (CI-M6PR [2]; Table 16E, conjugate, m average DAR 2, read-out: EC50 in M6PR binding assay for conjugates of monovalent compounds of varying linker length and loading) was 3.71 nM and the EC50 (CI-M6PR [2]; Table 16E, conjugate, m average DAR 4, read-out: EC50 in M6PR binding assay for conjugates of monovalent compounds of varying linker length and loading) was 0.3 nM. It also gave an EC50 (CI-M6PR [2]; Table 16E, conjugate, m average DAR 9, read-out: EC50 in M6PR binding assay for conjugates of monovalent compounds of varying linker length and loading) of 0.23 nM, an EC50 (CI-M6PR [2]; antibody conjugate, average loading DAR 2, read-out: EC50 (nM) in M6PR binding assay) of 2.6 nM and an EC50 (CI-M6PR [2]; antibody conjugate, average loading DAR 4, read-out: EC50 (nM) in M6PR binding assay) of 0.22 nM. For the same compound, the EC50 (CI-M6PR [2]; [8]) was 0.22 nM and the “binding affinity to M6PR, rank among conjugates tested (FIGS. 7A-7F)” value (CI-M6PR [2]; matuzumab conjugates, I-7 at d8 (DAR 8), I-11 at d4 (DAR 4)) was “highest”.

With `C[C@H](NC(=O)CCCn1cc(CCCCNC(=S)Nc2ccc(O[C@H]3O[C@H](CCP(=O)(O)O)[C@@H](O)[C@H](O)[C@@H]3O)cc2)nn1)C(=O)N[C@@H](C)C(=O)N[C@@H](C)C(=O)NCCOCCOCCOCCOCCC(=O)Oc1c(F)c(F)c(F)c(F)c1F` [528 (I-51)] the “uptake into Jurkat cells, average loading DAR9 versus DAR2” value (Jurkat cells [1]; one hour incubation, FIG. 12) was “greater uptake”, the “uptake into Jurkat cells (cell fluorescence vs conjugate concentration)” value (Jurkat cells [1]; one hour incubation, FIG. 12) was “strong cell uptake” and the EC50 (CI-M6PR [2]; EC50 in M6PR binding assay for conjugates of compounds of varying multivalency, Table 16D, conjugate, m average loading DAR 2) was 2.23 nM. The EC50 (CI-M6PR [2]; EC50 in M6PR binding assay for conjugates of monovalent compounds of varying linker length and loading, Table 16E, conjugate, m average DAR 2) was 2.23 nM, the EC50 (CI-M6PR [2]; Table 16B, antibody conjugate, average loading DAR 8, read-out: EC50 in M6PR binding assay) was 0.3 nM and the EC50 (CI-M6PR [2]; Table 16D, conjugate, m average loading DAR 9.5, read-out: EC50 in M6PR binding assay for conjugates of compounds of varying multivalency) was 0.2 nM. It also gave an EC50 (CI-M6PR [2]; [9]) of 0.2 nM and an EC50 (CI-M6PR [2]; [10]) of 0.2 nM.

For `O=C(NCCCCc1cn(CCOCCOCCOCCOCCC(=O)Oc2c(F)c(F)c(F)c(F)c2F)nn1)Nc1ccc(O[C@H]2O[C@H](CCP(=O)(O)O)[C@@H](O)[C@H](O)[C@@H]2O)cc1` [529 (I-38)], the “uptake into Jurkat cells (cell fluorescence vs conjugate concentration)” value (Jurkat cells [1]; one hour incubation, FIG. 12) was “strong cell uptake”, the “relative cellular uptake activity of IgE-Alexa488, omalizumab conjugates of Table 15A” value (Jurkat cells [4]; 1 hour, FIGS. 15-17) was “comparable activity to a thiourea Z^3 analog (520 (I-7) with m=4)” and the EC50 (CI-M6PR [2]; [9]) was 0.19 nM. The EC50 (CI-M6PR [2]; [10]) was 0.19 nM.

For `O=C(NCCCCc1cn(CCOCCOCCOCCOCCC(=O)Oc2c(F)c(F)c(F)c(F)c2F)nn1)Nc1ccc(S[C@@H]2O[C@H](CCP(=O)(O)O)[C@@H](O)[C@H](O)[C@@H]2O)cc1` [Compound 570], the “relative cellular uptake activity of IgE-Alexa488, omalizumab conjugates of Table 15B” value (Jurkat cells [4]; 1 hour, FIGS. 18-21) was “superior activity to conjugates having a α-S-glycoside configuration (552), and to a conjugate having an α-O-glycoside configuration (520 (I-7), m=8)”, the “relative cellular uptake activity of IgE-Alexa488, omalizumab conjugates of Table 19” value (Jurkat cells [4]; FIG. 23, entire dose response range) was “superior activity to the corresponding conjugates of α-O-glycoside (529) and α-S-glycoside (552)” and the “Kd (CI-M6PR binding affinity by SPR), relative” value (CI-M6PR [5]) was “superior Kd relative to corresponding α-O (529) and α-S-glycosides (552)”.

In the case of `O=C(CCN1C(=O)C=CC1=O)NCCOCCOCCOCCn1cc(CCO[C@H]2O[C@H](CCP(=O)(O)O)[C@@H](O)[C@H](O)[C@@H]2O)nn1` [Compound I-10], the half-life in mice [6] is reported as “longer half-life”, the “intracellular uptake of IgG2a-Alexa488 into Jurkat cells” value (Jurkat cells [1]; anti-IgG2a conjugates, 1 h and 24 h (FIGS. 9-10)) is reported as “sufficiently robust uptake” and the “binding affinity to M6PR compared to Compound I-7” value (CI-M6PR [2]; conjugates of ligand linkers) is reported as “weaker binding affinity to M6PR compared to Compound I-7; also recorded: weaker binding affinity to M6PR than Compound I-7”.

For `C#CCCCCCOC[C@H]1O[C@H](OC)[C@@H](O[C@H]2O[C@H](CCP(=O)(O)O)[C@@H](O)[C@H](O)[C@@H]2O)[C@@H](O)[C@@H]1O` [Compound I-108, (2-((2R,3S,4S,5S,6R)-6-(((2S,3S,4S,5S,6R)-6-((hept-6-yn-1-yloxy)methyl)-4,5-dihydroxy-2-methoxytetrahydro-2H-pyran-3-yl)oxy)-3,4,5-trihydroxytetrahydro-2H-pyran-2-yl)ethyl)phosphonic acid], the IC50 [7] was no less than 500 nM.

`O=C(NCCCCc1cn(-c2cccnc2)nn1)Nc1ccc(C[C@H]2O[C@H](CCP(=O)(O)O)[C@@H](O)[C@H](O)[C@@H]2O)cc1` [Compound P5] showed an IC50 [7] of 100 to 500 nM.
